From patent publication US20040067998A1, “Antifungal and/or antiparasitic pharmaceutical composition and novel indole derivatives as active principle of such a composition” (priority 2003, published 2004)
Values after ≈ are worked out from the molar mass of the structure shown. Values joined by “and” are separate entries in the source; they are usually repeats but may differ in a detail not shown here. Equal values may be shown once. Read-outs that look alike come from different tables or passages of the source.

Key:
[1] = system: Candida albicans (strain n° CA980001); experiment: Antifungal activity on a clinical strain of Candida albicans (MTT colorimetric microplate test); assay type: cell-based; conditions: for MIC / CMI or CI80 Candida albicans (CA980001): strain CA980001; for MIC: read-out: CMI or CI80 Candida albicans (CA980001)
[2] = system: Aspergillus fumigatus (strain n°AF 980003); experiment: Antifungal activity on a clinical strain of Aspergillus fumigatus (Alamar Blue microplate test); assay type: cell-based; conditions: for MIC / CMI or CI80 Aspergillus fumigatus (AF980003): strain AF980003; for MIC: read-out: CMI or CI80 Aspergillus fumigatus (AF980003); for activity against Aspergillus fumigatus (in words): summary of Tables 27 to 40
[3] = system: promastigote stage of Leishmania mexicana; experiment: Antiparasitic activity on the promastigote form of Leishmania (MTT); assay type: cell-based; conditions: for IC50: read-out: CI50 Leishmania mexicana Promastigotes
[4] = system: Candida albicans (CA98001); experiment: Antifungal activity in vivo on a model of disseminated candidiasis; design: species or system female Swiss mice; conditions: mouse, in vivo
[5] = Candida albicans, 24 h at 37° C., MTT
[6] = promastigotes, 36 h at 26° C., MTT

| SMILES | CMI or CI80 Candida albicans (CA980001) ([1]; 24 h at 37° C., MTT) | CMI or CI80 Aspergillus fumigatus (AF980003) ([2]; Alamar Blue) | MIC ([1]; 24 h at 37° C., MTT) | MIC ([2]; Alamar Blue) | CI50 Leishmania mexicana Promastigotes [3] | IC50 [3] | other results |
| --- | --- | --- | --- | --- | --- | --- | --- |
| Fc1ccc(C(C(n2ccc3ccccc32)n2nnc3ccccc32)n2ccnc2)cc1 (stereo not drawn) [Cpsé 83, 1-[2-(4-Fluorophenyl)-2-(1H-imidazol-1-yl)-1-(benzotriazol-1-yl)ethyl]-1H-indole] | – | – | – | – | – | – | MIC ([1]; Candida albicans, 24 h): 66 ± 6 µM (≈ 27.9 µg/mL); CMI or CI80 Candida albicans (CA980001) ([1]; listed as 46): 26 ± 2 µg/mL; MIC ([2]; Aspergillus fumigatus): > 100 µM; IC50 ([3]; Leishmania mexicana): 14 µg/mL and 35 µM |
| Fc1ccc(Cn2cc(Cn3ccnc3)c3cccnc32)cc1 [Cpsé 88, 1-(4-Fluorobenzyl)-3-(1H-Imidazol-1ylmethyl)-1H-7-azaindole] | – | – | – | – | – | – | MIC [1, 5]: 0.7 ± 0.01 µM (≈ 0.214 µg/mL); CMI or CI80 Candida albicans (CA980001) ([1]; 24 h at 37° C., MTT, listed as 51): 0.28 ± 0.01 µg/mL; activity of inhibition of Candida albicans (in words) ([1]; summary of Tables 27 to 40): most active; MIC ([2]; Aspergillus fumigatus, Alamar Blue): > 100 µM; IC50 ([3]; Leishmania mexicana, promastigotes, 36 h at 26° C., MTT): 16.6 µM and 6.64 µg/mL |
| OC(Cn1cncn1)(Cn1cncn1)c1ccc(F)cc1F [Fluconazole, fluconazole, reference compound] | 0.02 µg/mL | – | – | – | – | – | MIC [1, 5]: 0.07 µM (≈ 0.0214 µg/mL); survival at D10 [4]: 100% |
| Fc1cccc(Cn2cc(Cn3ccnc3)c3ccccc32)c1 [compound 5] | 68 ± 1 μM and 20.76 ± 1 μg/ml | 46 ± 5 μM and 14 ± 1.5 μg/ml | – | – | – | – | activity against Aspergillus fumigatus (in words) [2]: strong activity; CI50 Leishmania mexicana Promastigotes [3, 6]: 9.2 ± 0.7 µg/mL (≈ 30.1 µM); IC50 [3, 6]: 30.4 ± 2.5 µM |
| Fc1ccc(Cn2cc(Cn3ccnc3)c3ccccc32)c(F)c1 [compound 6] | 48 ± 4 μM and 16 ± 2 μg/ml | 60 ± 2 μM and 19.4 ± 2 μg/ml | – | – | – | – | activity against Aspergillus fumigatus (in words) [2]: strong activity; CI50 Leishmania mexicana Promastigotes [3, 6]: 6 ± 0.5 µg/mL (≈ 18.6 µM); IC50 [3, 6]: 18.5 ± 1.8 µM |
| Fc1ccccc1Cn1cc(Cn2ccnc2)c2cc(Br)ccc21 [compound 11] | – | – | >100 µM | >100 µM | 18.3 ± 0.6 µg/mL (≈ 47.6 µM) | 47.7 ± 1.6 µM | – |
| Fc1ccc(Cn2cc(Cn3ccnc3)c3cc(Br)ccc32)cc1 [compound 12] | – | – | >100 µM | >100 µM | 7.9 ± 0.9 µg/mL (≈ 20.6 µM) | 20.6 ± 2.4 µM | – |
| Clc1ccc(Cn2cc(Cn3ccnc3)c3cc(Cl)ccc32)cc1 [compound 14] | 30 µg/mL | 71 ± 3 μM and 25 ± 1 μg/ml | 85 µM (≈ 30.3 µg/mL) | – | non linear | – | – |
| Fc1ccc2c(c1)c(Cn1ccnc1)cn2Cc1ccc(Cl)cc1 [compound 15] | 21 ± 1 μM and 7 ± 1 μg/ml | 61 ± 3 μM and 20.73 ± 3 μg/ml | – | – | – | – | activity against Aspergillus fumigatus (in words) [2]: strong activity; CI50 Leishmania mexicana Promastigotes [3, 6]: 5.4 ± 1.6 µg/mL (≈ 15.9 µM); IC50 [3, 6]: 15.9 ± 5 µM |
| Fc1ccccc1Cn1cc(Cn2cncn2)c2cc(Br)ccc21 [compound 24] | – | – | >100 µM | >100 µM | 30.74 µg/mL (≈ 79.8 µM) | 79.8 µM | – |
| Fc1ccc(Cn2cc(Cn3cncn3)c3cc(Br)ccc32)cc1 [compound 25] | – | – | >100 µM | >100 µM | 19.38 µg/mL (≈ 50.3 µM) | 50.3 µM | – |
| CCn1c(C(c2cccc(Cl)c2)n2ccnc2)c(C)c2cc(Br)ccc21 (stereo not drawn) [compound 32] | – | – | – | – | – | < 0.1 µM | CMI or CI80 Candida albicans (CA980001) [1]: 62 ± 1 μM and 27 ± 0.5 μg/mL; CMI or CI80 Aspergillus fumigatus (AF980003) [2]: 66 ± 5 μM and 28 ± 2 μg/mL; activity against Leishmania mexicana (in words) [3]: most active |
